Publication PMC8910920 (International Journal of Molecular Sciences, 2022)

Key:
hCGRPR = molecular target: T1, hCGRPR (Homo sapiens, UniProt O60894+Q16602); experiment: Radioligand binding assay, CHO cells, hCGRPR; conditions: radioligand [125]hGCRPα
T1 construct: host or cells: CHO
Description: To define whether β–lactam derivative RGM8-51 could bind to CGRPR, CB2 and M3 receptors, in vitro binding assays were performed, using CHO cell lines transfected with these receptors. The degree of binding was determined by using specific radioligands for each receptor (Table 2, footnote).
These studies were subcontracted to Eurofins-CEREP or Eurofins-PANLABS. Briefly, agonists and antagonist assays were performed in cell cultures overexpressing the corresponding channel (CHO: TRPV1 and TRPA1; HEK293: TRPV3 and ASIC3). In vitro pharmacology, cellular channel functional assays: the compound was prepared in assay buffer to the final concentration, 10 μM. […] The agonist assay was conducted on fluorimeter instruments where the test compound, vehicle controls, and reference agonist were added to the assay plate after a fluorescence baseline was established. […] For the antagonist assay, the compound was pre-incubated for five minutes at room temperature, and then challenged with the EC80 concentration of the reference agonist after establishment of a fluorescence baseline. […] Binding assay results are expressed as a percent of control specific binding. […] Aqueous solubility (μM) was determined by comparing the peak area of the principal peak in a calibration standard (200 μM) containing organic solvent (methanol/water, 60/40, v/v) with the peak area of the corresponding peak in a buffer sample. […]

rTRPM8 = molecular target: T2, rTRPM8 (Rattus norvegicus, UniProt Q8R455); experiment: Whole-cell patch-clamp, HEK293-rTRPM8 cells; format: cell-based
T2 construct: expressed in transfected cells
Description: To confirm the antagonistic activity, electrophysiology (patch-clamp) studies were performed on HEK293 cells expressing the rTRPM8 channel. […] Then, using a holding voltage of −60 mV, different concentrations of RGM8-51 were used to establish the concentration/response curve for rTRPM8 current blockade.
Whole-cell patch-clamp recordings from HEK293-rTRPM8 cells were carried out 2 days after seeding on 12 mm Ø glass coverslips treated with poly-L-lysine solution (Sigma Aldrich, Spain); the intracellular pipette solution contained (in mM) 150 NaCl, 5 EGTA, 3 MgCl2 and 10 HEPES, adjusted to pH 7.2 with NaOH, and the extracellular solution contained (in mM) 150 NaCl, 6 CsCl, 1.5 CaCl2, 1 MgCl2, 10 D-glucose and 10 HEPES, adjusted to pH 7.4 with NaOH. The TRPM8 activity was measured by the application of two pulses of 100 μM menthol in a time interval of 2 min and a 30 s perfusion of the different compound concentrations before the second menthol pulse.
Data were sampled at 10 kHz (EPC10 amplifier with PatchMaster 2.53 software, HEKA Electronics, Lambrecht, Germany) and low-pass filtered at 3 kHz for analysis (PatchMaster 2.53 and GraphPad Prism 6.0, Graphpad Software, San Diego, CA, USA). The series resistance was <10 MΩ and to minimize voltage errors was compensated by 60–80%. […] Cell capacitance was measured and used to estimate the current density (J, pA/pF).
Data analysis: For the whole-cell patch-clamp experiments, results are expressed as the percentage of remaining activation of the TRPM8 channel. This is calculated by normalizing the ratio (p2/p1) of testing conditions to the ratio (p2/p1) of the control condition. […] All data are expressed as the mean ± standard error of the mean (SEM) (n = 5–8). In the current-clamp experiments, the change in membrane potential is expressed as the difference between the resting membrane potential and the membrane potential after the addition of a stimuli. Data were analyzed as previously described (GraphPad 6.0, one-way ANOVA followed by Bonferroni multiple comparisons test, and ROUT method, Q = 10%).

T2 sequence (Q8R455 whole entry): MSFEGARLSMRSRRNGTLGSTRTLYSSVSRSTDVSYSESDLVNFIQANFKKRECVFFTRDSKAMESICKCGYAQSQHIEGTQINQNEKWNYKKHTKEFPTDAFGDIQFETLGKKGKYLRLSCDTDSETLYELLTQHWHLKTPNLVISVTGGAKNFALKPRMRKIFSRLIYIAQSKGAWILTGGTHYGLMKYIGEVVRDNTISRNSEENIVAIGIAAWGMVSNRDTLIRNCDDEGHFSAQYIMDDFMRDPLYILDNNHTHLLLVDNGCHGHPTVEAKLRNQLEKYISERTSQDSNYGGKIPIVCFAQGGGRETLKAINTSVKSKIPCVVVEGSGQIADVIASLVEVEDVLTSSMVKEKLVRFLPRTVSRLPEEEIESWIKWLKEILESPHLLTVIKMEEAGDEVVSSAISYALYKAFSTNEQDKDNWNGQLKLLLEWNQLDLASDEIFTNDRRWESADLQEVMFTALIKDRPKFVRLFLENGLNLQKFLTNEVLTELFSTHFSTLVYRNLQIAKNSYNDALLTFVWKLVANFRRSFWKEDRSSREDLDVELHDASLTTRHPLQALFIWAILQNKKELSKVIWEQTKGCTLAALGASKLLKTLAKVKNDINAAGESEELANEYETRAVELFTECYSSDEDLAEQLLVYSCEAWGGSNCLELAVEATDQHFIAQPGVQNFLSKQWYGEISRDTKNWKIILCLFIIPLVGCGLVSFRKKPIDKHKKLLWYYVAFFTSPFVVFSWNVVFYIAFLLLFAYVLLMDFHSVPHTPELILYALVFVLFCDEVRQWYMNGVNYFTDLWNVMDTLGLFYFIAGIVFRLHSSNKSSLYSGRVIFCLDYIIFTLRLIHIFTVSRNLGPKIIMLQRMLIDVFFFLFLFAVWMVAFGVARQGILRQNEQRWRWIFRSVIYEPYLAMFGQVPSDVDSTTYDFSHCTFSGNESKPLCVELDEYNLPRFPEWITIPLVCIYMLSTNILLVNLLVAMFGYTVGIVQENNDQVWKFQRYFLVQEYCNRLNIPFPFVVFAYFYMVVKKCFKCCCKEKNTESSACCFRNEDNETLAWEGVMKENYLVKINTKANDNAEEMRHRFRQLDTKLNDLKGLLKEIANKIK
T1 sequence (Q16602 23-461): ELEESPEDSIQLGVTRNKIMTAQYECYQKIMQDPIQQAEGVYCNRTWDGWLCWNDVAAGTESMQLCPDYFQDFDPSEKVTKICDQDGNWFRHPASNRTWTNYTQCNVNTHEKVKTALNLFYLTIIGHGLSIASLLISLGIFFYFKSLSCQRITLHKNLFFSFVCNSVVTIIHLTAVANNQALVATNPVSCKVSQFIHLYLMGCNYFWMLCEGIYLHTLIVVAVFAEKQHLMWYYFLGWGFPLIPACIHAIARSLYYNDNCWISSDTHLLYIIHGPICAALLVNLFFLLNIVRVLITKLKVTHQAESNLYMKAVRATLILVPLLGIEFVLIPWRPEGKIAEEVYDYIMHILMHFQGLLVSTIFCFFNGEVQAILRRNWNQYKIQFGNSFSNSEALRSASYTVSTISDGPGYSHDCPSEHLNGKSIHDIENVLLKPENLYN
T1 sequence (O60894 27-148 partner): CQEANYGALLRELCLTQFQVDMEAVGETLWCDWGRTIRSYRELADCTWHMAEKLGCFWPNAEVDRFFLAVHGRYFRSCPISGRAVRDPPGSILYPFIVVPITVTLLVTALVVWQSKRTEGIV

In the case of `C[C@@H]1C(=O)N(C[C@H](Cc2ccccc2)N(Cc2ccccc2)Cc2ccccc2)[C@]1(Cc1ccccc1)C(=O)OC(C)(C)C` [RGM8-51, 4(S)-Benzyl-3S-methyl-4-(tert-butoxy)carbonyl-1-[(2′S-dibenzylamino-3′-phenyl)prop-1′-yl]-2-oxoazetidine], the “Binding hCGRPR (%), inhibition of specific binding” value (hCGRPR; 10 μM) is reported as “did not show significant affinity”, the inhibition at 10 µM (hCGRPR; read-out: Binding hCGRPR (%), inhibition of specific binding) is reported as -1 ± 4.3% and the “menthol-evoked outward rectifying current” value (rTRPM8; 10 μM compound, 100 µM menthol) is reported as “clearly reduced”. For the same molecule, the IC50 (rTRPM8; HEK293-rTRPM8, 100 μM menthol, holding voltage −60 mV) was 970 ± 1560 nM.
